Experiment [1] has as its target human ROCK I (Homo sapiens, UniProt Q13464). Briefly: ROCK enzyme inhibition assay. The experiment is classed as biochemical. On the procedure: ROCK enzyme inhibitory activity of the compounds of the present invention has been assayed as follow. An aqueous solution of Rho kinase substrate MYTP was added to 96-well plate. Following incubation for overnight at 4° C., the plate was blocked by using blocking buffer containing BSA. To the plate was added reaction buffer containing each concentration of compound, suitable concentration of human ROCK I (Caruna Biosciences), ATP, β-glycerol phosphate, EGTA, sodium orthovanadate and DTT, and then the plate was incubated for 1 hour. After washing the plate by washing buffer, anti-phosphothreonin antibody was added to the plate, and then the plate was incubated for 1 hour. After washing the plate by washing buffer again, HRP-conjugated anti-phosphorylated protein antibody was added to the plate, and then the plate was incubated for 1 hour. After washing the plate by washing buffer again, colorimetric substrate TMB microwell peroxidase substrate was added to the plate, and then the plate was incubated for appropriate time. After incubation, sulfuric acid was added to the plate to stop the reaction, and then absorbance (450 nm) was measured by using spectromether. Based, on the absorbance for each compound, the data is fit using Prism software to obtain a IC50 value.

Experiment [2] concerns Male Wistar rats. The experiment in a line: Inhibitory effects on phenylephrine-induced elevation of urethral pressure. The conditions noted are these: Rattus norvegicus, iv; phenylephrine 30 μg/kg i.v.; anesthetized rats; read-out: Inhibition of elevation in urethral pressure ED30. The experiment is classed as in vivo. From the text: To evaluate the usefulness of the compounds of the present invention for urinary dysfunction associated with benign prostatic hyperplasia, we investigated the inhibitory effects of the intravenous administration of the compounds on phenylephrine-induced elevation of the urethral pressure in rats.
Male Wistar rats were anesthetized with urethane (SIGMA, USA). After midline abdominal incision, catheter to measure the urethral pressure (3.5 Fr, Millar, USA) was inserted into the urethra from top of the bladder. After confirming the Phenylephrine (30 μg/kg i.v.)-induced elevation of the urethral pressure, compounds were administered intravenously in increasing doses. Every 5 min after administration of compounds, Phenylephrine (30 μg/kg i.v.) was injected, and the inhibitory effects of compounds on phenylephrine-induced elevation of urethral pressure were evaluated. Each experiment was performed in about 4 animals.

Experiment [3] has as its system Male Wistar rats. Briefly: Effects on hindlimb blood flow (laser Doppler). The class given is in vivo. The conditions noted are these: po; 10 mg/kg p.o.; rat hindlimb; read-out: % of increase of blood flow. From the text:
As one of the study to clarify the usefulness of the compounds of the present invention for peripheral arterial disease, we conducted a study to evaluate the effects of the compounds on hindlimb blood flow in rats.
Male Wistar rats were anesthetized by intraperitoneal pentobarbital injection (Kanto chemical, Japan) after oral administration of compounds. Rats were placed on a heating plate for subsequent hindlimb blood flow analysis. We measured hindlimb blood flow using a laser Doppler blood flow meter (PeriScan System, Stockholm, Sweden). After the laser Doppler images were recorded, the average perfusion values of both limbs were calculated, and evaluated the effects of compounds on hindlimb blood flow. Each experiment was performed in about 4 animals.

For experiment [4], the system named is Male SD rats. The experiment in a line: Changes in hindlimb weight distribution after intra-articular monosodium iodoacetate (MIA) injection. The class given is in vivo. Particulars: Rattus norvegicus, 504 h; oral administration; MIA-injected rats, three weeks after injection. From the text: As intra-articular injection of monosodium iodoacetate (MIA) induced human osteoarthritis-like histopathological changes in knee joint, this model would be very useful for the study of human osteoarthritis. Recently, it is reported the clinical scores of the joint pain were closely correlated to the grade of histological findings (J Vet Med Sci 65, 1195, 2003) and this model may be useful for estimation of therapeutic effects of pain with osteoarthritis.
Male SD rats were anesthetized with halothane (Takeda, Japan) and given single intra-articular injection of 1 mg of monosodium iodoacetate (MIA; Sigma, St. Louis, USA) through the infrapatellar ligament of the right knee. MIA was dissolved with physiologic saline and administered in a volume of 50 μl using a 27-gauge, 0.5-inch needle. Three weeks after the injection, hindlimb weight distribution was determined using an incapacitance tester (Linton Instrumentation, Norfork, UK). Rats were allowed to acclimate to the testing apparatus and when stationary, readings were taken over a 5 s period. […] Each group in each experiment was performed in about 8 animals.

In experiment [5] the test system is female C57Bl/6 mice. The experiment in a line: Bleomycin-induced lung fibrosis model, hydroxyproline content of the lung. The class given is in vivo, mouse. Particulars: 1 mg/kg orally once a day from day 1 to day 35; lung removed day 36. On the procedure: To induce pulmonary fibrosis, ten mg/kg bleomycin (Nipponkayaku Industries Ltd, Tokyo, Japan) was intraperitoneally injected into female C57Bl/6 mice (9 weeks old, Charles River Laboratories Japan, Inc.) once a day from day 1 to day 10. Bleomycin was dissolved in saline and control mice were intraperitoneally injected with saline. The compound or vehicle was orally administered to the mice once a day from day 1 to day 35. On day 36, mice were sacrificed under anesthesia of pentobarbital and the lung was surgically removed. Hydroxyproline content of the lung was assayed according to the method of Woessner JF (1).

For experiment [6], the system named is beagle dogs. The experiment in a line: In vivo eye pressure lowering effect (IOP), beagle dogs. Particulars: beagle dog, 10 mM applied topically. The protocol: (§1) The intraocular pressure (IOP) was determined in beagle dogs and rats with tonometer (TONO-PEN™, MENTOR and TonoLab™, M. E. Technica), specially calibrated for the eye of the particular species. In beagle dogs, the cornea was anesthetized with oxibuprocain before each IOP measurement.

The test system of experiment [7] is rats. The experiment in a line: In vivo eye pressure lowering effect (IOP), rats. Particulars: rat, 10 mM applied topically. On the procedure:
as §1

Eleven compounds from patent US20110166161A1, “HETEROCYCLIC CARBOXAMIDE COMPOUNDS” (Astellas Pharma Inc., priority 2008, published 2011) can be followed below.

The structures appear in SMILES notation. Structures can show the parent of a compound that is named as a salt.

The IC50 is the point on the concentration scale where inhibition reaches its midpoint. Lower therefore signals inhibition by little substance. Broadly, the ED50 is the dose that gives a 50% effect, or the effect in half of the subjects. Higher therefore signals weaker potency.

Sequence of human ROCK I (Q13464 whole entry): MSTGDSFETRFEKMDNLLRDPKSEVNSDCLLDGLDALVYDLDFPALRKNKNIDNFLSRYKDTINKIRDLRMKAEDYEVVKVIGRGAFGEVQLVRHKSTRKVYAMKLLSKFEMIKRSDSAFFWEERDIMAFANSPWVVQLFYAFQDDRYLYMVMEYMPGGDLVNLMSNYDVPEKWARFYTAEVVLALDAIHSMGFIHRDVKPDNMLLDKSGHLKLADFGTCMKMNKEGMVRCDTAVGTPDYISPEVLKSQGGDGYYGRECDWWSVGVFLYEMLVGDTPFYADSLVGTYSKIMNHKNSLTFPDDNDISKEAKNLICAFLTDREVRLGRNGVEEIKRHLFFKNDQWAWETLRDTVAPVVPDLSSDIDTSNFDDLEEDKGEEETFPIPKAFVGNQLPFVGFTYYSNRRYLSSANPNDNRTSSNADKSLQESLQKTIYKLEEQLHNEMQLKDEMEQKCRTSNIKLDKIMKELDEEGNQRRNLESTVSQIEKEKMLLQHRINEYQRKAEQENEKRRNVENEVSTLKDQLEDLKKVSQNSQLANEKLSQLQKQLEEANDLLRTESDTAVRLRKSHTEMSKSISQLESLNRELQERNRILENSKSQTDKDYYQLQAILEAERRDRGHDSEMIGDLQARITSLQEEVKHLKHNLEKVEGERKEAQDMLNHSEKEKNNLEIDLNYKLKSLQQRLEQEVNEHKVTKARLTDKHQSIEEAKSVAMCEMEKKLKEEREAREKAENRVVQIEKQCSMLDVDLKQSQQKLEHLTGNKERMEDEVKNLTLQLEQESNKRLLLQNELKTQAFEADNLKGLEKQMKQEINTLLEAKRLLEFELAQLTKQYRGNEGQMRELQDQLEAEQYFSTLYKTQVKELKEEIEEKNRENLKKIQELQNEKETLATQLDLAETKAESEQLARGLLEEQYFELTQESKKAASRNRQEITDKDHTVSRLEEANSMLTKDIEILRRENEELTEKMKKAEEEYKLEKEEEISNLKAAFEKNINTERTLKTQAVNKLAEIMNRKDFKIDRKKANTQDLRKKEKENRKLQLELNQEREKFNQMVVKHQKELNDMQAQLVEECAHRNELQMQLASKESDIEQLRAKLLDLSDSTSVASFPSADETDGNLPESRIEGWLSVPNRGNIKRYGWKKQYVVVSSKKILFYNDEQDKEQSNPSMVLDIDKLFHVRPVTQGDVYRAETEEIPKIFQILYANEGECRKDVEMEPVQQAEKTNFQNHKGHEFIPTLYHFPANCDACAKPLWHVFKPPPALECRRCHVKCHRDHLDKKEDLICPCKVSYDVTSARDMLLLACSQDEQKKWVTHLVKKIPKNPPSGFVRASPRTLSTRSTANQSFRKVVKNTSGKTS

As to `COc1nc(N[C@H]2CC[C@H](N)CC2)ccc1C(N)=O` [Example 1, 6-[(trans-4-aminocyclohexyl)amino]-2-methoxynicotinamide dihydrochloride], inhibition in experiment [1] was half-maximal at 2 nM (IC50). For the same compound, the ED30 in experiment [2] was below 0.5 mg/kg. Further, the change in vivo at 10 mg/kg in experiment [3] is above 130%. The same compound yielded an ED50 in experiment [4] below 1 mg/kg.

In experiment [1], `COc1nc(N[C@H]2CC[C@H](N)CC2)c(F)cc1C(N)=O` [Example 2, 6-[(trans-4-aminocyclohexyl)amino]-5-fluoro-2-methoxynicotinamide dihydrochloride] yielded an IC50 of 2 nM. Moreover, the ED30 in experiment [2] was below 0.5 mg/kg. Further, the change in vivo at 10 mg/kg in experiment [3] was above 130%. In experiment [4], this compound came in with an ED50 below 1 mg/kg.

Turning to `COc1nc(N[C@H]2CC[C@H](N)CC2)c(F)cc1C(N)=O` [Example 3, 6-[(trans-4-aminocyclohexyl)amino]-5-fluoro-2-methoxynicotinamide], the “reduction of hydroxyproline content of the lung” value in experiment [5] was 66%. The “IOP change in animals after 4 hours” value in experiment [6] was −16% reduced in beagle dog.

In turn, `COc1nc(N[C@H]2CC[C@H](N)CC2)c(Cl)cc1C(N)=O` [Example 4, 6-[(trans-4-aminocyclohexyl)amino]-5-chloro-2-methoxynicotinamide] registered an IC50 in experiment [1] of 5 nM. For the same compound, the ED30 in experiment [2] is below 0.5 mg/kg. In addition, in experiment [3], the change in vivo at 10 mg/kg was above 130%. In addition, in experiment [4], the median effective dose (ED50) was below 1 mg/kg.

On to `COc1nc(N[C@H]2CC[C@H](N)CC2)c(Br)cc1C(N)=O` [Example 5, 6-[(trans-4-aminocyclohexyl)amino]-5-bromo-2-methoxynicotinamide], for which, in experiment [1], the IC50 amounted to 39 nM. For the same compound, the ED30 in experiment [2] was below 0.5 mg/kg. In experiment [3], the change in vivo at 10 mg/kg is above 130%. The same compound had a median effective dose (ED50) in experiment [4] below 3 mg/kg.

In experiment [1], `CCOc1nc(N[C@H]2CC[C@H](N)CC2)ccc1C(N)=O` [Example 6, 6-[(trans-4-aminocyclohexyl)amino]-2-ethoxynicotinamide dihydrochloride] came in with an IC50 of 10 nM. Also, the ED30 in experiment [2] was below 0.5 mg/kg. The change in vivo at 10 mg/kg in experiment [3] was above 130%.

In experiment [1], `CCOc1nc(N[C@H]2CC[C@H](N)CC2)c(F)cc1C(N)=O` [Example 7, 6-[(trans-4-aminocyclohexyl)amino]-2-ethoxy-5-fluoronicotinamide dihydrochloride] displayed an IC50 of 9 nM. Also, in experiment [2], the ED30 was below 0.5 mg/kg. In experiment [3], the change in vivo at 10 mg/kg is above 130%.

Consider `CCOc1nc(N[C@H]2CC[C@H](N)CC2)c(Br)cc1C(N)=O` [Example 9, 6-[(trans-4-aminocyclohexyl)amino]-5-bromo-2-ethoxynicotinamide], for which the “IOP change in animals after 4 hours” value in experiment [7] is given as −30% reduced in rat.

In the case of `CCOc1nc(N[C@H]2CC[C@H](N)CC2)c(I)cc1C(N)=O` [Example 10, 6-[(trans-4-aminocyclohexyl)amino]-5-iodo-2-ethoxynicotinamide], the “IOP change in animals after 4 hours” value in experiment [7] is −26% reduced in rat.

For the compound `COc1nc(N[C@H]2CC[C@H](NS(C)(=O)=O)CC2)c(F)cc1C(N)=O` [Example 28, 6-[(trans-4-methanesulfonylaminocyclohexyl)amino]-5-fluoro-2-methoxynicotinamide], the midpoint of inhibition in experiment [1], the IC50, lay at 58 nM. Further, the ED30 in experiment [2] was below 0.5 mg/kg. Also, the change in vivo at 10 mg/kg in experiment [3] is above 130%.

As to `COc1nc(N[C@H]2CC[C@H](NC3CCS(=O)(=O)CC3)CC2)c(F)cc1C(N)=O` [Example 30, 6-({trans-4-[(1,1-dioxidotetrahydro-2H-thiopyran-4-yl)amino]cyclohexyl}amino)-5-fluoro-2-methoxynicotinamide], 7 nM corresponded to half-maximal inhibition in experiment [1] (IC50). Further, in experiment [2], the ED30 is below 0.5 mg/kg. Further, in experiment [3], the change in vivo at 10 mg/kg is above 130%.
